Laboratory results taken from paper PMC3313951, “CUP-1 Is a Novel Protein Involved in Dietary Cholesterol Uptake in Caenorhabditis elegans” (PLoS ONE, 2012).
Substitutions are numbered along the chain they refer to.

How the values were obtained:
Experiment in all cases: FRET by acceptor photobleaching, DHE donor to GFP acceptor, fixed transfected HEK293-FT cells
Assay type in all cases: cell-based
[1] = target: T1, CUP-1-GFP (Cholesterol Uptake Protein-1; ZK721.1/tag-130) (Caenorhabditis elegans, UniProt Q9GYF0, Y576G); conditions: 5 uM DHE, 35 min, 37 °C; transmembrane CRAC motif mutant
T1 construct: gene chup-1; full-length CUP-1 (stop codon removed) with C-terminal EGFP (pEGFP-N1), transiently expressed in HEK293-FT cells; GFP is the FRET acceptor
T1 sequence (Q9GYF0 19-756 Y576G): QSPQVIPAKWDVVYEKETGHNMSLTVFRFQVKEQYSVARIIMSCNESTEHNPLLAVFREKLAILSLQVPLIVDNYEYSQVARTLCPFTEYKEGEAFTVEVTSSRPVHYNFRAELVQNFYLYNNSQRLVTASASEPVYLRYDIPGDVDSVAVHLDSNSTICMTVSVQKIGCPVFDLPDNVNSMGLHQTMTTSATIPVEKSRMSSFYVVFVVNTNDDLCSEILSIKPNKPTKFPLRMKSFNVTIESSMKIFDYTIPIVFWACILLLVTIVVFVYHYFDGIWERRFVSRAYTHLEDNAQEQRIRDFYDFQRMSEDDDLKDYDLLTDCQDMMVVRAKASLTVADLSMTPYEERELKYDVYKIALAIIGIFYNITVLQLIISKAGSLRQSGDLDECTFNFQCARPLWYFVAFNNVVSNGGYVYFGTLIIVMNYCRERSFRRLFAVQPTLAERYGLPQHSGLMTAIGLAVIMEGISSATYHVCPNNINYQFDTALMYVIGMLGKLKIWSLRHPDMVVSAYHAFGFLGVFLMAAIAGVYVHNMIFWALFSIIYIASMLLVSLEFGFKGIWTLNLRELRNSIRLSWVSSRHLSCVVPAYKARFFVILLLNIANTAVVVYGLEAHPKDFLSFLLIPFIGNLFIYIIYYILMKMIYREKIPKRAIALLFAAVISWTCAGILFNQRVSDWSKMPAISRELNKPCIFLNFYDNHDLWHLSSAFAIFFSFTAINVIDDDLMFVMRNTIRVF

[2] = target: T2, CUP-1-GFP (Cholesterol Uptake Protein-1; ZK721.1/tag-130) (Caenorhabditis elegans, UniProt Q9GYF0, Y126G); conditions: 5 uM DHE, 35 min, 37 °C; extracellular CRAC motif mutant
T2 construct: gene chup-1; full-length CUP-1 (stop codon removed) with C-terminal EGFP (pEGFP-N1), transiently expressed in HEK293-FT cells
T2 sequence (Q9GYF0 19-756 Y126G): T1 sequence (Q9GYF0 19-756 Y576G) with Y108G, G558Y

[3] = target: T3, CUP-1-GFP (Cholesterol Uptake Protein-1; ZK721.1/tag-130) (Caenorhabditis elegans, UniProt Q9GYF0); conditions: 5 uM DHE, 35 min, 37 °C; soluble GFP control
T3 construct: gene chup-1; full-length CUP-1 (stop codon removed) with C-terminal EGFP (pEGFP-N1), transiently expressed in HEK293-FT cells
T3 sequence (Q9GYF0 19-756): T1 sequence (Q9GYF0 19-756 Y576G) with G558Y

[4] = target: T4, CUP-1-GFP (Cholesterol Uptake Protein-1; ZK721.1/tag-130) (Caenorhabditis elegans, UniProt Q9GYF0, Y126G/Y576G); conditions: 5 uM DHE, 35 min, 37 °C; double CRAC mutant
T4 construct: gene chup-1; full-length CUP-1 (stop codon removed) with C-terminal EGFP (pEGFP-N1), transiently expressed in HEK293-FT cells; GFP is the FRET acceptor
T4 sequence (Q9GYF0 19-756 Y126G/Y576G): T1 sequence (Q9GYF0 19-756 Y576G) with Y108G

**Q.** For CC(C)[C@@H](C)/C=C/[C@@H](C)[C@H]1CC[C@H]2C3=CC=C4C[C@@H](O)CC[C@]4(C)C3=CC[C@]12C [DHE, Dehydroergosterol], which FRETeff [1] is on record?
**A.** The FRETeff was 16.7%.

**Q.** And the FRETeff [2]?
**A.** The FRETeff was “Mutagenization of the extracellular CRAC motif did not result in a statistically significant reduction”.

**Q.** And the FRETeff [3]?
**A.** The FRETeff was > 28%.

**Q.** What about the FRETeff [4] of the same molecule?
**A.** Its FRETeff is 17.8%.
